Reference: patent publication US20250051703A1, “EGG OPENER, EX OVO TUMOR XENOGRAFT METHOD, THERAPEUTIC COMPOUND ASSAY, THERAPEUTIC COMPOUND TESTING METHOD VIA EX OVO QUAIL EGG XENOGRAFT ASSAY” (CHILDREN'S CANCER THERAPY DEVELOPMENT INSTITUTE, priority 2021, published 2025)
Entries after “also recorded” stand apart in the source; their conditions may differ.

Tests used:
[1] = system: murine glioma cell line GL261; settings: literature (Yang, et al.); cited from earlier work
[2] = system: murine glioma cell line GL261; settings: literature (Yang, et al.); cited from earlier work; remark: listed apart in the source
[3] = system: U48484 mouse rhabdomyosarcoma cells; experiment: Quail tumor assay: U48484 tumor module xenograft on quail CAM, bioluminescence; type: in vivo
Description: U48484 mouse rhabdomyosarcoma cells were cultured, trypsinized and added to two different vials of hydrogel making a concentration of 10^6 cells per 50 μl. BEZ235 (cat #S1009, Selleck Chemicals, Houston, TX) in a solution of 0.1% DMF (cat #TS-20673, Thermo Fisher Scientific) in PBS was added to 10^6 U48484 mouse rhabdomyosarcoma cells mixed with 50 μl hydrogel for a final concentration of 500 nM BEZ235. For untreated eggs, 0.1% DMF in PBS was used as a control. 50 μl of cells/hydrogel/drug mixture were added to each scaffold and incubated for approximately 30-45 minutes at 37° C. and 100% humidity. As detailed above, a superficial injury was created on the chorioallantoic membrane and tumor module containing either drug or control was placed on top. Quail bearing tumor module models were incubated for 72 hours. Add the end of the incubation, 100 μl of PBS containing 1.5 mg of luciferin-d (cat #122799, PerkinElmer) was added to the 3D scaffold, incubated for 10 minutes in the dark, and bioluminescence was measured using a Fluorchem instrument (ProteinSimple, San Jose, CA). The quail were imaged with an 8 minute exposure for total light emission.
u48484 is a murine rhabdomyosarcoma cell line constitutively expressing firefly luciferase (available from the originating laboratory as described in Aslam et al, PDGFRβ reverses EphB4 signaling in alveolar rhabdomyosarcoma, Proc Natl Acad Sci USA. 2014 Apr. 29; 111 (17): 6383-8. doi: 10.1073/pnas. 1403608111; PMID 24733895), which is used to form a CAM xenograft as per the invention herein except being a non-human tumor cell line.
U48484 mouse rhabdomyosarcoma cells were cultured, trypsinized and added to two different vials of hydrogel making a concentration of 10^6 cells per 50 μl. […] Add the end of the incubation, 100 μl of PBS containing 1.5 mg of luciferin-d (cat #122799, Perkin Elmer) was added to the 3D scaffold, incubated for 10 minutes in the dark, and bioluminescence was measured using a Fluorchem instrument (Protein Simple, San Jose, CA). […]

[4] = system: Hep3B human hepatocellular carcinoma; settings: literature (Li, et al.); cited from earlier work
[5] = system: HepG2 xenograft CAM assay; experiment: Quail dose response assay (ex ovo CAM xenograft, osmotic bead drug depot), HepG2; type: in vivo, human; settings: for dose-response in HepG2 xenograft CAM assay: FIGS. 18H and 18I, radiance
Description: (§1) The tumor modules for dose response assay are generated as described above but with 5×10^5 cells per 50 μl. Drug was dissolved in DMSO for all levels to a final tumor module concentration of vehicle control, 0.3 μM, 3 μM, or 30 μM with n=6. P-10 beads (catalog #1504144, Bio-Rad, Hercules, CA, USA) are soaked in PBS at the concentration of the modules for four hours at room temperature. Approximately 50 μl of bead solution is added to a 9.5×1.5 mm plastic ring placed on top of the tumor module forming a drug depot. The drug depot provided a constant source of drug keeping the tumor module at a constant concentration despite drug leaving the module for the quail, as shown in FIG. 17. The IR820 has an exponential range between 0.001 and 1 μM as shown in the dose-response curve of FIG. 17A in lumens v. IR820 concentration.
(§2) The quail with tumor module models and drug depots are incubated for 72 hours. Afterwards, 150 μl of 15 mg/ml luciferin (cat #122799, Perkin Elmer) in PBS is added to the modules incubated for 10 minutes and then imaged on an IVIS Lumina (PerkinElmer) for between 15 seconds (for cell lines HepG2) or 1 minute (for cell lines HB243 and HB282).
Validation assays are conducted to correlate murine and human cell lines across a range of biologicals and small molecule drugs for pediatric and adult cell lines. B16F10 is a murine melanoma cell line constitutively expressing firefly luciferase (available as cat #BW124734 from Perkin-Elmer, Akron, Ohio USA), which is used to form a CAM xenograft as per the invention herein with the difference of being an adult-type cancer cell line, and radiance reflecting cell viability as impaired by drug. In FIGS. 18A-18J, to analyze drug efficacy on tumor cells, luciferin is added to the scaffold and then imaged by a CCD camera to determine the total xenograft cell viability, with the results indicated as radiance (e.g., steradians/cm^2/s) on the Y axis. See also FIG. 1 at Step 14. […]

[6] = system: B16F10 murine melanoma cell line; experiment: B16F10 xenograft CAM assay, radiance; type: in vivo; settings: FIG. 18A
Description: Validation assays are conducted to correlate murine and human cell lines across a range of biologicals and small molecule drugs for pediatric and adult cell lines. B16F10 is a murine melanoma cell line constitutively expressing firefly luciferase (available as cat #BW124734 from Perkin-Elmer, Akron, Ohio USA), which is used to form a CAM xenograft as per the invention herein with the difference of being an adult-type cancer cell line, and radiance reflecting cell viability as impaired by drug. In FIGS. 18A-18J, to analyze drug efficacy on tumor cells, luciferin is added to the scaffold and then imaged by a CCD camera to determine the total xenograft cell viability, with the results indicated as radiance (e.g., steradians/cm^2/s) on the Y axis. See also FIG. 1 at Step 14.

[7] = system: e10 quail embryo liver and kidney; settings: Japanese quail, in vivo
Description: Cediranib (Cat #S1017, Selleck Chemicals LLC, Houston, TX) and erlotinib (Cat #S7786) were purchased from Selleck Chemicals and reconstituted in dimethyl sulfoxide (DMSO) following the manufacturers recommendations and diluted to 10 mM stock concentration.
Fertilized Japanese quail eggs were incubated and plated as described previously. Quail were allowed to grow ex ovo in six-well plates until the quail had passed the patterning phase (e8 based on plating date). Each experimental arm was assigned n=4 viable quail and treated with one of four experimental conditions: vehicle, cediranib, ertoltinib, and cediranib+erlotinib. […] Stock concentrations were diluted in phosphate-buffered saline (PBS) to the respective target concentrations and to a final volume of 25 μL per agent. DMSO for vehicle was set at the DMSO volume used in the cediranib+erlotinib combination (8.4 μL DMSO).
Vehicle and diluted agents were subsequently applied dropwise to the quail chorioallantoic membrane. Quail were photographed at 0 hours, 24 hours, and 48 hours.

[8] = cited from earlier work
[9] = system: BT474 human breast cancer cell line; experiment: BT474 xenograft CAM assay, radiance; type: in vivo; settings: FIGS. 18C and 18D
[10] = system: HB243 hepatoblastoma cell line; experiment: In vitro % viability dose-response, HB243; type: cell-based, human; settings: n=4 replicates per point
[11] = system: HB282 hepatoblastoma cell line; experiment: In vitro % viability dose-response, HB282; type: cell-based; settings: Homo sapiens, n=4 replicates per point
[12] = system: HepG2 hepatoblastoma cell line; experiment: In vitro % viability dose-response, HepG2; type: cell-based; settings: Homo sapiens, n=4 replicates per point
HB243 CAM xenograft = experiment: Quail dose response assay (ex ovo CAM xenograft, osmotic bead drug depot), HB243; type: in vivo; settings: Homo sapiens, osmotic bead delivery, 72 hours, read-out: 50% tumor growth inhibition (ex ovo IC50), HB243
Description: as §1, §2
(§3) The tumor modules for dose response assay were generated as described above but with 5×10^5 cells per 50 μl. […]

HB282 CAM xenograft = experiment: Quail dose response assay (ex ovo CAM xenograft, osmotic bead drug depot), HB282; type: in vivo; settings: Homo sapiens, osmotic bead delivery, 72 hours, read-out: 50% tumor growth inhibition (ex ovo IC50), HB282
Description: as §1, §2, §3

HB243 murine xenografts = experiment: Murine in vivo xenograft study, HB243; design: species or system mouse
Description: All studies in mice were performed after receiving approval from the institutional animal care and use committee (IACUC) at Children's Cancer Therapy Development Institute and in accordance with ARRIVE Guidelines. HepG2 and HB243 were suspended in Matrigel and injected into n=10 eight week-old female nod scid gamma mice per cell line xenograft (Charles River, Hollister, CA, NOD.CB17-Prkde^scid/NCrCrl) with 2×10^6 cells per 100 μl injection. […] Volasertib (cat #S2235, Selleck Chem) was suspended in 3.75% DMSO and corn oil (cat #C8267, Sigma-Aldrich, St Louis, MO) at a concentration of 1.5 mg/ml with 100 μl injected intraperitoneally with mice chosen for the drug and control group randomly selected to minimize selection bias. The mice were imaged by intraperitoneal injection of luciferin-d according to manufacturer's instructions. The tumors were measured using calipers every 3 days and the equation for volume was […]. At the study end or if the tumors reached 1.5 cc the tumors were removed and measured.
For the murine in vivo xenograft study survival analysis, the tumor endpoint volumes for time-to-event (TTE) analysis were set at 0.75 cc and were collected to 1.5 cc. TTE was defined in days by selecting the day in which the tumor volume equaled or surpassed 0.75 cc. […] The Kaplan-Meier survival plot represents the percentage of animals surviving at different time points during the study. These percentages were generated from the TTE data using GraphPad Prism 9.0 software (Graphpad Software, San Diego, CA, https://www.graphpad.com/scientific-software/prism/). Survival curve comparisons were analyzed using the Mantel-Cox and Gehan-Breslow-Wilcox tests (95% CI) through Graph Pad Prism 9.0 software. For the quail xenograft assay, significance was determined by an unpaired two-tailed t-test with Welch's correction and a p-value less than 0.05 was considered statistically significant. Error bars represent±standard error of the mean (SEM).

HepG2 murine xenografts = experiment: Murine in vivo xenograft study, HepG2; design: species or system mouse; settings: FIG. 16F
Description: All studies in mice were performed after receiving approval from the institutional animal care and use committee (IACUC) at Children's Cancer Therapy Development Institute and in accordance with ARRIVE Guidelines. HepG2 and HB243 were suspended in Matrigel and injected into n=10 eight week-old female nod scid gamma mice per cell line xenograft (Charles River, Hollister, CA, NOD.CB17-Prkde^scid/NCrCrl) with 2×10^6 cells per 100 μl injection. […] The tumors were measured using calipers every 3 days and the equation for volume was V=L×W×H×0.5(π/6). At the study end or if the tumors reached 1.5 cc the tumors were removed and measured.
For the murine in vivo xenograft study survival analysis, the tumor endpoint volumes for time-to-event (TTE) analysis were set at 0.75 cc and were collected to 1.5 cc. […] Survival curve comparisons were analyzed using the Mantel-Cox and Gehan-Breslow-Wilcox tests (95% CI) through Graph Pad Prism 9.0 software. For the quail xenograft assay, significance was determined by an unpaired two-tailed t-test with Welch's correction and a p-value less than 0.05 was considered statistically significant. […]

Cc1sc2c(c1C)C(c1ccc(Cl)cc1)=N[C@@H](CC(=O)Nc1ccc(OCCOCCOCCOCCNc3cccc4c3C(=O)N(C3CCC(=O)NC3=O)C4=O)cc1)c1nnc(C)n1-2 (stereo partly shown) [ARV-825]
efficacy against GL261 in vitro [1]: showing efficacy | efficacy against GL261 in vivo [2]: showing efficacy

Cn1c(=O)n(-c2ccc(C(C)(C)C#N)cc2)c2c3cc(-c4cnc5ccccc5c4)ccc3ncc21 [BEZ235]
significance p, treated (n=6) vs vehicle control (n=4), tumor bioluminescence ([3]; FIG. 14, unpaired two-tailed t-test with Welch's correction): 0.0048 | inhibition of tumor growth in u48484 xenograft CAM assay ([3]; FIG. 18J): drug-related inhibition of tumor growth can be observed | inhibition at 0.5 µM ([3]; Mus musculus, Rhabdomyosarcoma cell, 500 nM in the hydrogel volume, 72 hours on CAM, read-out: reduction in U48484 tumor module bioluminescence (tumor cell viability)): 20%

Cc1sc2c(c1C)C(c1ccc(Cl)cc1)=N[C@@H](CC(=O)OC(C)(C)C)c1nnc(C)n1-2 [JQ1]
efficacy against Hep3B in vivo [4]: showed efficacy

Cc1ncsc1-c1ccc(CNC(=O)[C@@H]2C[C@@H](O)CN2C(=O)[C@@H](NC(=O)COCCOCCOCCNC(=O)C[C@@H]2N=C(c3ccc(Cl)cc3)c3c(sc(C)c3C)-n3c(C)nnc32)C(C)(C)C)cc1 [MZ1]
dose-response in HepG2 xenograft CAM assay [5]: dose-response relationship can be observed | dose-response in B16F10 xenograft CAM assay [6]: dose-response relationship exists

COc1cc2c(Oc3ccc4[nH]c(C)cc4c3F)ncnc2cc1OCCCN1CCCC1 [cediranib]
remaining viable quail 48 hours after dosing [7]: 3 | maximum clinically-achievable serum concentrations (Cmax) in human patients [8]: 0.042 µg/mL

C#Cc1cccc(Nc2ncnc3cc(OCCOC)c(OCCOC)cc23)c1 [erlotinib]
remaining viable quail 48 hours after dosing [7]: 3 | maximum clinically-achievable serum concentrations (Cmax) in human patients [8]: 1.3 µg/mL

CS(=O)(=O)CCNCc1ccc(-c2ccc3ncnc(Nc4ccc(OCc5cccc(F)c5)c(Cl)c4)c3c2)o1 [lapatinib]
dose-response in BT474 xenograft CAM assay [9]: dose-response relationship

CC[C@@H]1C(=O)N(C)c2cnc(Nc3ccc(C(=O)N[C@H]4CC[C@H](N5CCN(CC6CC6)CC5)CC4)cc3OC)nc2N1C(C)C [volasertib]
IC50 ([10]; Homo sapiens): 0.191 µM | IC50 [10]: 0.282 µM | IC50 [11]: 0.916 µM | IC50 [12]: 0.508 µM | IC50 (HB243 CAM xenograft): 1.46 µM | IC50 (HB282 CAM xenograft): 1.04 µM | sensitivity of HepG2 ex ovo ([5]; FIG. 16D, CAM xenograft, osmotic bead delivery, 72 hours): insensitive at any concentration | dose-response in HepG2 xenograft CAM assay [5]: dose-response relationship can be observed | tumor growth of HB243 mouse xenograft relative to the control group (HB243 murine xenografts; FIG. 16E): statistically significant reduction in growth | treatment mice surviving to the endpoint longer than control (average) (HB243 murine xenografts; HB243 mouse xenograft, vs vehicle): 4.5 days | survival of HB243 murine xenografts, treatment vs control, p (Mantel-Cox test) (HB243 murine xenografts; n=4, event = tumor volume equal or greater than 0.75 cc, intraperitoneal): 0.031 | survival / response of HepG2 mouse xenograft (HepG2 murine xenografts): no increase in survival; also recorded: continued to be resistant
